One assay deals with SH-SY5Y cells. Nature of the assay: SG formation in SH-SY5Y cells, immunocytochemistry. The conditions noted are these: 30 μM, 1 h. It counts as cell-based, human. As to the method: (§1) SH-SY5Y cells originated from a human neuroblastoma were mock-treated or treated with 15d-PGJ2 (30 μM) for 1 h, heat at 44° C. for 1 h, or PGE2 (30 μM) for 1 h. The same set of experiments as outlined in FIG. 9A were performed with RAW264.7 macrophage cells. HEK 293T cells were mock-treated or treated with 15d-PGJ2 (50 μM) for 1 hour. Immunocytochemical analyses were performed with antibodies against eIF4GI and TIAR and the obtained results are shown in FIG. 9C.

Assay [1] relates to RRL (rabbit reticulocyte lysate). Nature of the assay: In vitro translation in RRL (rabbit reticulocyte lysate). It counts as biochemical.
The test system of assay [2] is RAW264.7 macrophage cells. Kind of assay: SG formation in RAW264.7 macrophage cells, immunocytochemistry. It is filed as cell-based. As for the experimental part: as §1
The subject of a further assay is RIP-TRAF2 interaction. Kind of assay: RIP-TRAF2 co-immunoprecipitation in 293T cells. It is filed as cell-based. The conditions noted are these: 50 μM 1 hour then TNF-α 100 ng/ml 30 min, FIG. 10B. As for the experimental part:
293T cells transfected with DNAs were lysed using the NP-40 lysis buffer. The lysates were clarified by centrifugation at 14,000 g for 15 minutes. Anti-FLAG monoclonal antibody (4 μg) was incubated with 20 μl of Protein G-agarose (GE Healthcare) for 1 hour in 1 ml NP-40 lysis buffer at 4° C. Lysates were pre-cleared with 10 μl of protein G-agarose at 4° C. for 30 minutes. After pre-clearing, cell lysates were treated with 50 μM of EtOH, PGE2, or 15d-PGJ2 at 30° C. for 1 hour, followed by centrifugation. Then protein G agarose-conjugated antibodies were incubated with the pre-cleared lysates at 4° C. for 1 hour. Precipitates were washed three times with lysis buffer and analyzed by SDS-PAGE.
In FIG. 10B, 293T cells were co-transfected with plasmids expressing FLAG-tagged RIP and HA-tagged TRAF2. After 48 hours of incubation, cells were mock-treated or treated with 50 μM of 15d-PGJ2 for 1 hour and then treated with 100 ng/ml of TNF-α for 30 min. Immunoprecipitation was performed with an anti-FLAG antibody. Western-blot analyses were performed with anti-FLAG and anti-HA antibodies.

A further assay concerns ribosomes. Nature of the assay: Ribosomal pull-down with biotinylated β-globin mRNA in RRL. It is filed as biochemical, rabbit. The conditions noted are these: 10 μM or 50 μM, FIG. 12B. As for the experimental part:
Ribosomal pull-downs were performed as described by Colon-Ramos et al. (Colon-Ramos et al., 2006, which is hereby incorporated by reference for all purposes as if fully set forth herein). Biotinylated β-globin mRNAs synthesized from plasmid pcDNA3-7B-ARE-MS2bs were incubated in an RRL (Promega) in the presence or absence of 15d-PGJ2. After the translation reactions, 10 μg/ml of cycloheximide was added to stop the translation, and then reaction mixtures were incubated with 50 μl of streptavidin Sepharose beads at 4° C. for 1 h. Precipitated resins were washed three times, resolved by SDS-PAGE and then transferred to a nitrocellulose membrane.
In addition, effects of 15d-PGJ2 on HCV IRES-dependent translation and ribosome binding of mRNA are examined, as shown in FIGS. 12A and 12B. In FIG. 12A, HCV IRES-dependent translation is not affected by 15d-PGJ2. In vitro translation of an mRNA (40 nM) containing Renilla luciferase under the control of the HCV IRES was performed in RRL (Promega) for 1 hour with the addition of purified eIF4A1 protein (0 ng, lanes 1 and 2; 250 ng, lanes 3 and 4; 500 ng, lanes 5 and 6). 15d-PGJ2 (50 μM) was added to the translation mixtures shown in lanes 2, 4, and 6. Relative luciferase activities to the mock-treated sample (lane 1) are shown in columns (mean values). Bars indicate standard deviation values. […]

In assay [3] the test system is eIF4A1. Kind of assay: Streptavidin pull-down with biotinylated prostaglandins. It is filed as binding, human.
Assay [4] addresses T1, eIF4A1 (Homo sapiens, UniProt P60842, C264S).
T1 construct: His; gift of Dr. Nadejda Korneeva, Louisiana State University
The assay is described as above. The conditions noted are these: FLAG-eIF4A1 from 293T cells, FIG. 6E lane 4. It is filed as binding.

T1 sequence (P60842 2-406 C264S): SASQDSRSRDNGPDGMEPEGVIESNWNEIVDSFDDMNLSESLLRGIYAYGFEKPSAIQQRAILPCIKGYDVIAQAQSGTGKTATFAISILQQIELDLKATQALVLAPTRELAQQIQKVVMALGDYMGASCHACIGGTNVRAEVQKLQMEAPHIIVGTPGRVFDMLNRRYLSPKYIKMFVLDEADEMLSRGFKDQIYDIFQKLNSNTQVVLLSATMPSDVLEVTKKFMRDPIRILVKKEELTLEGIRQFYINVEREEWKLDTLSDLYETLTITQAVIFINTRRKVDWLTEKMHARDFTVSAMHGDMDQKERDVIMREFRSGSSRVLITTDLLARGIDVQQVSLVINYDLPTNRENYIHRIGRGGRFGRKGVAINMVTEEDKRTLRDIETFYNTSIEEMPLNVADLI

Regarding `CCCCC/C=C/C=C1/C(=O)C=C[C@@H]1C/C=C\CCCC(=O)O` [15d-PGJ2, 15-deoxy-delta 12,14-prostaglandin J2], the SG formation entry (with SH-SY5Y cells; in assay [2]) was “induced SG formation” in each case. The “HCV IRES-dependent translation” value in assay [1] (RRL, 50 μM, 1 hour, FIG. 12A) is “not affected”. In assay [1] (RRL, 50 μM, eIF4A1 0, 250, 500 ng, FIG. 7D), the “Effect of added purified eIF4A1 on translation mixture treated with 15d-PGJ2” value is “restored translation activity”. In addition, the “Amount of purified eIF4A1 required for complete restoration of translation” value in assay [1] (final concentration, about 1/100 amount of 15d-PGJ2 by molarity) was “about 0.5 μM”. In addition, in the assay with RIP-TRAF2 interaction, the RIP-TRAF2 interaction entry was “interaction between RIP and TRAF2 was inhibited”. Further, the “Binding of a cap-dependent mRNA to ribosomes” value in the assay with ribosomes is “impairs the binding of a cap-dependent mRNA to ribosomes”. Besides, in the assay with eIF4A1 [3] (FLAG-eIF4A1 from 293T cells, FIG. 6E lanes 2 and 3), the “Binding to other mutant forms of eIF4A” value is recorded as “bound to 15d-PGJ2”. Moreover, the “Binding site on eIF4A” value in the assay on eIF4A1 [3] (from cysteine to serine mutants, FIG. 6E) is reported as “directly binds to the cysteine residue 264”. For the same compound, the “Binding to eIF4A with the C264S mutation” value on eIF4A1 [4] is “could not interact with 15d-PGJ2”.

The record behind these values is patent US20090023810A1, “METHODS OF TRANSLATION AND/OR INFLAMMATION BLOCKADE” (priority 2007, published 2009).
